The values that follow are results of earlier work, collected in patent US9961900B2, “Herbicide formulations” (priority 2012, dated 2018).

In brackets after ≈: the same amount, converted by molar mass. Where two headings read alike, the source gives them in different places.

For data set [1] the following is noted: for Aqueous photolysis DT50: pH 7.
The conditions of data set [2]: for Hydrolysis DT50: darkness.
Test in data set [3]: not given
The source holds these as a separate data set.

For `COC(=O)C(C)Oc1ccc(Oc2ccc(Cl)cc2Cl)cc1` (racemic) [diclofop-methyl, methyl (RS)-2-[4-(2,4-dichlorophenoxy)phenoxy]propionate], the “Aqueous photolysis DT50” value in data set [1] is reported as “Aqueous photolysis DT50 at pH 7: 22 days^++”. Moreover, under “20° C.”, the Solubility in acetone entry is reported as “In acetone, toluene, dichloromethane, 500,000 mg/L”; the Solubility in dichloromethane entry is reported as “In acetone, toluene, dichloromethane, 500,000 mg/L”; the “Solubility in n-hexane” value is reported as “mg/L; in n-Hexane: 49,700 mg/L (all at 20° C.) ^++”; the Solubility in toluene result is “In acetone, toluene, dichloromethane, 500,000 mg/L”. Under “20° C.”, the Solubility in water result is reported as “Water: 0.39 mg/L (20° C.)”. For the same compound, the “Aqueous hydrolysis (DT50)” value in data set [2] (20° C. and pH 7) was “at 20 °C and pH 7: 31.7 days”. For the same compound, the “Hydrolysis DT50” value in data set [2] (pH 5, 25° C.) is 363 days. The “Hydrolysis DT50” value in data set [2] (pH 7, 25° C.) is 31.7 days. The “Hydrolysis DT50” value in data set [2] (pH 9, 25° C.) is reported as 0.52 days. The “log P (octanol-water)” value in data set [3] (pH 7, 20° C.) is “log P = 4.8”.

As for `CCOC(=O)[C@@H](C)Oc1ccc(Oc2nc3ccc(Cl)cc3o2)cc1` [fenoxaprop-p-ethyl, ethyl (R)-2-[4-(6-chloro-1,3-benzoxazol-2-yloxy)phenoxy]propionate], the “Aqueous photolysis DT50” value in data set [1] is recorded as “Aqueous photolysis DT50 at pH 7: 105 days”. The Solubility in acetone entry (20° C.) was “In acetone, ethyl acetate, toluene, >200 g/L;”. For the same compound, under “20° C.”, the “Solubility in ethyl acetate” value is given as “In acetone, ethyl acetate, toluene, >200 g/L;”. Under “20° C.”, the Solubility in methanol entry is “methanol 43 g/L (all at 20° C.) ^+”. Moreover, the Solubility in water entry (pH 5.8, 25° C.) is given as “Water: 0.7 mg/L at pH 5.8 (25° C.)”. The “Hydrolytic DT50” value in data set [2] (pH 4, 25° C.) was 2.8 days; in data set [2] (pH 5, 25° C.), 19.2 days; in data set [2] (pH 7, 25° C.) it was 23.2 days; in data set [2] (pH 9, 25° C.), 7), 0.6 d (pH 9) (all at 25° C.) ^+. For the same compound, the “log P (octanol-water)” value in data set [3] is on record as “log P = 4.58 ^+”.

In the case of `COc1ncc(F)c2nc(S(=O)(=O)Nc3c(F)cccc3F)nn12` [florasulam], the Solubility in acetone result was “Acetone: 123,000 mg/L” and the Solubility in water entry is reported as “Water: 6360 mg/L”. In data set [1] (at pH 7), the “Photolytic stability DT50” value is “DT50: 156 d”. Further, in data set [2] (at pH 7 and 20° C.), the Aqueous hydrolysis result is listed as “Stable”. The “log P (octanol-water)” value in data set [3] is recorded as “log P: −1.22”.

Turning to `COC(=O)[C@@H](C)Oc1ccc(Oc2ncc(C(F)(F)F)cc2Cl)cc1` [haloxyfop-p-methyl, methyl (R)-2-{4-[3-chloro-5-(trifluoromethyl)-2-pyridyloxy]phenoxy}propionate], the “Aqueous photolysis DT50” value in data set [1] is listed as “Aqueous photolysis DT50 at pH 7: 20 days^++”. Under “25° C.”, the Solubility in acetone is > 500 mg/mL, the Solubility in dichloromethane was > 500 mg/mL, the “Solubility in ethyl acetate” value is > 500 mg/mL and the Solubility in methanol is 76 mg/mL (≈ 202 mM). For the same compound, for the setting “25° C.”, the Solubility in n-hexane was 11 mg/mL (≈ 29.3 mM) and the Solubility in toluene is > 500 mg/mL. The Solubility in water (pH 5, 25° C.) is recorded as 6.9 mg/L (≈ 0.0184 mM). Further, where the note is “pH 7, 25° C.”, the Solubility in water is 7.9 mg/L at pH 7 (all at 25° C.). The Solubility in water (unbuffered, 25° C.) is listed as 9.1 mg/L (≈ 0.0242 mM). Besides, the DT50 in data set [2] (natural water, 20° C.) is 3 days. Further, the DT50 entry in data set [2] (pH 4, 20° C.) is listed as “stable”. Moreover, the DT50 in data set [2] (pH 7, 20° C.) was 43 days. In data set [2] (pH 9, 20° C.), the DT50 is listed as 0.63 d (pH 9) (all at 20° C.) ^+. In addition, the “log P (octanol-water)” value in data set [3] (20° C.) is recorded as “log P = 4.0”.
